Records with an inconclusive call do not appear. Calls of active or inactive are those of the source. How the calls were made is not given here; tested in MIN6 cells.
Assay: cell-permeable autofluorescent compounds in GFP channel, dose response, artefact control, imaging, high-content imaging (AID 2124);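 further: cells exposed to compound for 48 hours before fixing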
Conditions: cells, GFP-channel autofluorescence, high-content imaging, at 10 µM; for z-score: stronger effect = higher value

Row | SMILES | z-score | cell count [cells]
1 | CCN(CC)C(=O)c1sc2nc(-c3cccs3)cc(-c3cccs3)c2c1N | -0.2 (inactive) | 3420
2 | Oc1c(C=NCc2ccc(F)cc2)[nH]c2ccc(Br)c(Cl)c12 | -0.31 (inactive) | 3310
3 | Cc1cc(C)cc(NC(=O)/C=C/c2ccc([N+](=O)[O-])s2)c1 | 0.02 | 960
4 | Nc1c(C(=O)C2CC2)sc2nc(-c3ccccc3)cc(C(F)(F)F)c12 | 0.39 | 3090
5 | CCOc1cc(C)c(S(=O)(=O)Nc2ccc3cn[nH]c3c2)cc1C | -0.33 (inactive) | 1550
6 | Cc1ccc(N2C(=O)c3cccc4c(N5CCN(C)CC5)ccc(c34)C2=O)c2cccnc12 | 0.07 | 1800
7 | CCCN1CC=C2C(C#N)=C(N)C(C#N)(C#N)C(c3cc(OC)ccc3OC)C2C1 (stereo not given) | 0.52 | 3140
8 | CCCCC(=O)Nc1ccc2c(c1)nc1n2CCSC1 | -0.38 (inactive) | 2870
9 | O=C(N=C1SCC(=O)N1c1ccccc1Cl)c1ccccc1 | -0.31 (inactive) | 3110
10 | CC(=O)c1c(COC(=O)c2ccncc2)nc2ccccc2[n+]1[O-] | -0.33 (inactive) | 2880
11 | N#Cc1c2c(c(-n3cnc4ccccc43)n3c1nc1ccccc13)CCC2 | -0.25 (inactive) | 3100
12 | CCOc1ccc(NC(=S)N2CCC(N(C)CC3CCCO3)CC2)cc1 (stereo not given) | -0.33 (inactive) | 2900
13 | C1=C(N2CCOCC2)/C(=C/c2nc3ccccc3[nH]2)CC1 | -0.33 (inactive) | 3040
14 | Fc1ccc(C2CC(c3ccco3)=NN2c2ccccc2)cc1 (stereo not given) | -0.33 (inactive) | 2910
15 | Cc1ccc(C(=O)NN2C(=O)/C(=C/c3cn(C)c4ccccc34)SC2=S)cc1 | -0.27 (inactive) | 3060
16 | CC1CCN(C(=O)CNS(=O)(=O)c2ccc(Br)s2)CC1 | -0.33 (inactive) | 3290
17 | CCN(CC)c1ccc(C=C(c2nnnn2-c2ccccc2)c2nnnn2-c2ccccc2)cc1 | -0.26 (inactive) | 2370
18 | Cn1c(=O)n(C)c2cc(NC(=O)COc3ccc(Cl)cc3)ccc21 | -0.33 (inactive) | 3010
19 | Cc1ccccc1C(=O)N1CCc2ccccc2C1 | -0.39 (inactive) | 3270
20 | Cc1cc(C)nc(N2CCC(C(=O)Nc3ccc4c(c3)OCCO4)CC2)n1 | -0.33 (inactive) | 2790
21 | Nc1nnc(-c2cc3c(ccc4ccccc43)oc2=O)s1 | -0.23 (inactive) | 2510
22 | Cc1c(C(=O)O)cccc1-c1ccc(/C=C2/NC(=O)N(c3ccccc3)C2=O)o1 | -0.39 (inactive) | 3120
23 | CCN1/C(=C/c2cc[n+](CCCS(=O)(=O)[O-])c3ccccc23)Sc2ccccc21 | -0.24 (inactive) | 1390
24 | O=C1C2C3C=CC(C3)C2C(=O)N1CCc1ccccc1 (stereo not given) | -0.33 (inactive) | 3430
25 | CC[n+]1c(/C=C/C=C/N(C(C)=O)c2ccccc2)sc2cc(OC)ccc21 | 7.8 | 111
26 | CC(/C=N/NC(=O)c1ccncc1)=C\c1ccc(C(C)C)cc1 | -0.33 (inactive) | 2700
27 | CN(C)c1nc(N)nc(/C(C#N)=C/C2CC3C=CC2C3)n1 (stereo not given) | -0.33 (inactive) | 2780

Row | SMILES | z-score | cell count [cells]
28 | CCCCCOC(=O)C1=C(C)Nc2nnnn2C1c1ccc(OC)c(OC)c1OC (stereo not given) | -0.39 (inactive) | 3580
29 | N#C/C(=C\c1ccc(N2CCCCC2)o1)C(=O)Nc1cccc(Br)c1 | 3.15 | 2780
30 | NS(=O)(=O)c1ccc(NC=C2C(=O)OC3(CCCCC3)OC2=O)cc1 | -0.25 (inactive) | 3080
31 | CC(C)NC(=O)N1CCN(c2ccncc2S(=O)(=O)N2CCOCC2)CC1 | -0.39 (inactive) | 2900
32 | CCCSc1nc2sc3c(c2c(=O)[nH]1)CCN(Cc1ccccc1)C3 | -0.3 (inactive) | 3160
33 | CCn1c2ccccc2c2nnc(SCC(=O)Nc3cc(C)on3)nc21 | -0.33 (inactive) | 3100
34 | CN(C)C=Nc1ccc2nn(-c3ccccc3)nc2c1 | -0.34 (inactive) | 3050
35 | O=C(COc1ccccc1)N1CCN=C1c1ccccc1 | -0.33 (inactive) | 3190
36 | Cc1cc(/C=C2\SC(=S)NC2=O)c(C)n1-c1ccc(O)cc1 | -0.36 (inactive) | 3000
37 | N#CCc1nc(CSc2nc3ccccc3s2)cs1 | -0.32 (inactive) | 2980
38 | Cc1ccc(C)c(NC(=O)C(C)CC2COCCO2)c1 (stereo not given) | -0.38 (inactive) | 3230
39 | CCc1ccccc1N1C(=O)/C(=C/c2ccc(N3CCN(C)CC3)o2)C(=O)NC1=S | -0.35 (inactive) | 2580
40 | Cc1ccc(Nc2nc3c([nH]2)c(=O)n(C)c(=O)n3C)cc1 | -0.39 (inactive) | 2720
41 | CN1/C(=C/C=C(C#N)C#N)C=Cc2ccccc21 | -0.35 (inactive) | 2500
42 | O=[N+]([O-])c1ccc(C2=NN(c3ccccc3)C(c3ccco3)C2)cc1 (stereo not given) | 0.17 | 3180
43 | COc1cc2c(cc1NC(=O)CN1CCN(S(=O)(=O)c3ccccc3F)CC1)oc1ccccc12 | -0.33 (inactive) | 3180
44 | Cc1ccccc1SCc1noc(C(=O)NC(C)C)c1C(=O)O | -0.39 (inactive) | 3150
45 | COc1ccc(OCCn2cc(/C(N)=N/O)c3ccccc32)cc1 | -0.33 (inactive) | 2930
46 | CCCOc1cc(N(CC)CC)ccc1/C=C(/C#N)c1nc2ccc(C)cc2[nH]1 | 0.73 | 1370
47 | CCCCNC(=O)C1CC(=O)N(C2CCCCC2)C1 (stereo not given) | -0.33 (inactive) | 3070
48 | O=C(CCN1C(=O)/C(=C/c2cccs2)SC1=S)NNC(=O)c1cccc(O)c1 | -0.33 (inactive) | 3190
49 | O=C(c1ccc2c(c1)OCO2)N1CCCC1 | -0.33 (inactive) | 2960
50 | C=CCC(c1ccccc1)N(C(C)=O)c1ccco1 (stereo not given) | -0.33 (inactive) | 3430
51 | COCc1cc(C)nc(Nc2ccccc2C)c1C#N | -0.34 (inactive) | 3240
52 | COc1ccc(NC(=O)c2[nH]c(C)c(C(C)=O)c2C)cc1Cl | -0.33 (inactive) | 3410
53 | CC(C)SC1=NC(C)(C)C=C(/C=C/c2ccc(Cl)cc2Cl)N1 | -0.36 (inactive) | 2940
54 | CCC(C)N1C(=O)/C(=C/c2c(NCCCOC(C)C)nc3c(C)cccn3c2=O)SC1=S (stereo not given) | 1.19 | 2350

Row | SMILES | z-score | cell count [cells]
55 | COc1ccccc1Nc1nc(Cl)c(C=O)s1 | -0.31 (inactive) | 2970
56 | Nc1nc(-c2ccc(Cl)cc2)c(N=Nc2ccc(S(=O)(=O)N3CCOCC3)cc2)s1 | -0.32 (inactive) | 2990
57 | Cc1ccc(C2CC(=O)NC(SCc3ccccc3)=C2C#N)o1 (stereo not given) | -0.33 (inactive) | 3270
58 | COc1cccc(N2CCN(c3ncccn3)CC2)c1 | -0.33 (inactive) | 3230
59 | N#C/C(=C\c1ccc(N2CCOCC2)o1)c1nc2ccccc2[nH]1 | 0.96 | 2400
60 | O=C1/C(=N\S(=O)(=O)c2cccs2)C([n+]2cccc(Cc3ccccc3)c2)=C([O-])c2ccccc21 | -0.31 (inactive) | 307
61 | CCC(C(=O)OCC(=O)Nc1cccc(S(=O)(=O)NC2=NCCCCC2)c1)c1ccccc1 (stereo not given) | -0.33 (inactive) | 3080
62 | Cc1cc(C)cc(N=Cc2[nH]c3ccc(Br)c(Cl)c3c2O)c1 | 0.1 | 2820
63 | Nc1c(C(=O)Nc2nccs2)sc2nc(-c3cccs3)cc(C(F)(F)F)c12 | 0.39 | 2940
64 | Cc1ccc2[nH]c(-c3ccccc3)c(CN(C)C)c(=O)c2c1 | -0.33 (inactive) | 3240
65 | O=[N+]([O-])c1ccc(N/N=C/c2c[nH]c3ccccc23)cc1 | 0.33 | 1200
66 | CCN1/C(=C/c2ccc3cc(C)ccc3[n+]2CC)Sc2ccccc21 | 1.64 | 190
67 | CC(C)NC(=O)NC(=O)COC(=O)c1cccc(S(=O)(=O)N2CCCCC2)c1 | -0.39 (inactive) | 3040
68 | Cc1cc(C)n(C(=O)CCC2COc3ccccc3O2)n1 (stereo not given) | -0.25 (inactive) | 2940
69 | Cc1cc(C2C(C#N)=C(N)Oc3n[nH]c(C)c32)c(C)s1 (stereo not given) | -0.25 (inactive) | 3010
70 | O=C(NC1(C(F)(F)F)NC(=O)N(c2ccc(F)c(Cl)c2)C1=O)c1ccncc1 (stereo not given) | -0.39 (inactive) | 3240
71 | CC(=O)C1=C(C)Nc2ncnn2C1c1ccc(Cl)cc1Cl (stereo not given) | -0.33 (inactive) | 3270
72 | COCCCNc1c2c3c(cccc3[nH]c1=O)C(=O)c1ccccc1-2 | 1.79 | 2800
73 | Cc1cnc(NC(=O)CN2CCN(c3ccccn3)CC2)s1 | -0.39 (inactive) | 2360
74 | COC(=O)Cc1c(C)nc2nc(NCc3ccccc3OC)[nH]n2c1=O | -0.26 (inactive) | 3050
75 | CCN(CC)CCN1C(=O)c2oc3ccccc3c(=O)c2C1c1ccccc1 (stereo not given) | -0.33 (inactive) | 3330
76 | O=C(Cn1ncn2c(cc3ccccc32)c1=O)NCc1ccco1 | -0.39 (inactive) | 2610
77 | CC(=O)Oc1ccc2c(c1)Oc1cc(OC(C)=O)ccc1C21OC(=O)c2ccccc21 | 4.32 | 3270
78 | Cc1ccc(S(=O)(=O)c2cccc(S(=O)(=O)N3CCCC3)c2)cc1S(=O)(=O)N1CCCC1 | -0.33 (inactive) | 2360
79 | CCCC(=O)c1c(C)c2ccccc2n1C | -0.38 (inactive) | 3160
80 | CN(C)C(=O)C1C2NC(=S)N(c3cccc(Cl)c3)C1(C)Oc1ccc(Cl)cc12 (stereo not given) | -0.39 (inactive) | 3180

Source: PubChem BioAssay AID2124 (Sanford-Burnham Center for Chemical Genomics, 2009)
